Data published in patent US8729048B2, “Methods and materials for assessing responsiveness to PARP inhibitors and platinating agents” (Mayo Foundation for Medical Education and Research, priority 2011, dated 2014).
Entries after “also recorded” stand apart in the source; their conditions may differ.

Tests used:
[1] = system: MMEJ activity in PEO1 cells; assay: Microhomology mediated end-joining assay (MMEJ), PEO1; type: cell-based; conditions: 72 hours
Source text: FIG. 11. PARP inhibition fails to induce microhomology-mediated end-joining (MMEJ). (A) Schematic of the reporter substrate used to assay for MMEJ activity. Cleavage of pDVG94 with EcoRV and AfeI creates a blunt-ended linearized substrate, with identical 6-bp ends. Direct joining by NHEJ will result in maintenance of both repeats, but MMEJ will excise one repeat, introducing a new BstXI site. PCR across recircularized substrate produces a product of 180 bp, which can be cut into 120 and 60 bp fragments if the BstXI site was created. This figure is adapted from a figure provided elsewhere (Verkaik et al., Eur. J. Immunol., 32:701-709 (2002)). (B) and (C) Agarose gel from a representative MMEJ assay. PEO1 (B, lanes 1-10) and PEO4 (C) cells were treated with increasing concentrations of ABT-888 following transfection with linearized pDVG94. The size of the initial PCR product (180 bp) as well as BstXI cleaved products (120 bp and 60 bp) are indicated. As a positive and negative control, a cell line previously documented to undergo MMEJ (Lou et al., J. Biol. Chem., 279:46359-46362 (2004)), M059J (B, lanes 11 and 12), and a MMEJ-negative line, M059J+DNA-PKcs (B, lanes 13 and 14) were used. Images were captured from one gel and cut to create two panels. […]

[2] = system: NHEJ activity in PEO1 cells; assay: NHEJ end-joining reporter assay, PEO1; type: cell-based; conditions: 72 hours
Source text: FIG. 3. Error-prone NHEJ activity is enhanced by PARP inhibitors in PEO1 cells. (A) Schematic of the in vivo NHEJ assay. Pem1-Ad2-EGFP is an EGFP-containing vector with a 2.4 kb intron (Pem1) and one exon (Ad2) inserted into the EGFP cassette. Pem1-Ad2-EGFP was cut with either HindIII or I-SceI to produce linearized substrate with compatible overhangs or incompatible inverted overhangs, respectively. Successfully recircularized plasmid will produce intact EGFP, which can be assayed via flow cytometry. Any residual uncut plasmid, due to the insertion of the Ad2 exon within the EGFP open reading frame, will be EGFP negative. A pCherry plasmid was co-transfected with substrate to correct for transfection efficiency. (B) and (C) Quantitation of NHEJ activity in PEO1 and PEO4 cells transfected with HindIII substrate (B) or I-SceI substrate (C) and exposed to ABT-888 for 72 hours. Each data point represents the mean±SEM from 3 independent experiments.
The end-joining reporter plasmid pEGFP-Pem1-Ad2 described elsewhere (Wang et al., Nucleic Acids Res., 34:6170-6182 (2006); Seluanov et al., Proc. Natl. Acad. Sci. USA, 101:7624-7629 (2004); and Fattah et al., PLoS Genet., 6:e1000855 (2010); see also (FIG. 3A)) was provided by E. Hendrickson (University of Minnesota, Minneapolis, Minn.) and was digested with either HindIII or I-SceI for 12 hours, and gel purified using a Qiagen gel extraction kit. […]

`C[C@]1(c2nc3c(C(N)=O)cccc3[nH]2)CCCN1` [ABT-888] was tested, and the “induction of MMEJ” value [1] was “not detected”, the “end-joining of I-SceI-linearized substrate” value ([2]; PEO1 cells compared to PEO4 cells) was “significantly increased; also recorded: pronounced increase in end-joining” and the “end-joining of HindIII-linearized substrate” value ([2]; PEO1 cells) was “little effect; also recorded: small increase in end-joining”.
